Results taken from patent US12371454B2, “Cyclic peptide compound having Kras inhibitory action” (priority 2019, dated 2025).
Starred links: 1 amine or outer side, 2 acyl side, 3 side chain; linkers in the order of their positions; H or OH if unused. Positions of bridges follow the written chain, without caps; N, C: chain ends. Non-standard residues stand in square brackets, D forms with d. Residues, ends and D or L forms follow the SMILES beside them. *: point of attachment. hPhe(3-Cl-4-CF3) = N[C@@H](CCc1ccc(C(F)(F)F)c(Cl)c1)C(=O)O; hPhe(3-F,4-CF3) = N[C@@H](CCc1ccc(C(F)(F)F)c(F)c1)C(=O)O; NMePhe(4-CF3) = CN[C@@H](Cc1ccc(C(F)(F)F)cc1)C(=O)O; X5 = CC(C)(C)NC(=O)COC[C@H](CC(=O)[*:1])N[*:2]; NMePhe(3-CN) = CN[C@@H](Cc1cccc(C#N)c1)C(=O)O; NMeAbu(4,4,4-F3) = CN[C@@H](CC(F)(F)F)C(=O)O; hPhe(3-Cl) = N[C@@H](CCc1cccc(Cl)c1)C(=O)O; hPhe(4-Cl) = N[C@@H](CCc1ccc(Cl)cc1)C(=O)O; NMedβ3hAla = C[C@H](CC(=O)[*:2])N(C)[*:1]; NMeGly(cPent) = CN[C@H](C(=O)O)C1CCCC1; Pro(4,4-F2) = O=C(O)[C@@H]1CC(F)(F)CN1; NMeCha = CN[C@@H](CC1CCCCC1)C(=O)O; NMeChg = CN[C@H](C(=O)O)C1CCCCC1; NMeD = CN[C@@H](CC(=O)O)C(=O)O; NMeL = CN[C@@H](CC(C)C)C(=O)O; NMeV = CN[C@H](C(=O)O)C(C)C; d(β3hA) = C[C@@H](N)CC(=O)O; NMeS = CN[C@@H](CO)C(=O)O; Morpholide = C1CN(*)CCO1; NMeA = CN[C@@H](C)C(=O)O; NMeAib = CNC(C)(C)C(=O)O; Piperidide = C1CCN(*)CC1; Ac5c = NC1(C(=O)O)CCCC1; Aze = O=C(O)[C@@H]1CCN1; Ac4c = NC1(C(=O)O)CCC1; Nleu = CC(C)CNCC(=O)O; βAla = NCCC(=O)O; Sar = CNCC(=O)O; Propyl = CCC*

Molecular target: T1, Kras and SOS1 (biotin-tagged human Kras loaded with GDP, His-tagged human SOS1) (Homo sapiens, UniProt P01116, G12D)
T1 construct: made in house; host or cells: E. coli (stated for Kras only)
T1 sequence (P01116 1-188 isoform P01116-2 G12D): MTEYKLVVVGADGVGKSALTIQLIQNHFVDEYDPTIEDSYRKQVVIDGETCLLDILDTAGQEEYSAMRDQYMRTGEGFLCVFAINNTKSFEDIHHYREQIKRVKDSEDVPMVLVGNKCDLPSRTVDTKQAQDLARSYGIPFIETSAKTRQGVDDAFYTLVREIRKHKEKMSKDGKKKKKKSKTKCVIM
Assay: Protein-protein interaction inhibition between Kras and SOS1 (KrasGl2D-SOS PPI) using AlphaScreen
Assay type: binding
Settings: AlphaScreen; biotin-tagged human Kras loaded with GDP, His-tagged human SOS1; read-out: KRAS G12D-SOS PPI IC50
In short: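 Donor beads (nickel) hold His-SOS1; acceptor beads (streptavidin) hold biotin-Kras bound to GDP. Signal measured at 520-620 nm following 680 nm excitation.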

With CC[C@H](C)[C@@H]1NC(=O)[C@H](CC(C)C)N(C)C(=O)C[C@@H](C(=O)N2CCCCC2)N(C)C(=O)[C@H](C(C)C)N(C)C(=O)C2(CCCC2)NC(=O)[C@@H]2CCCN2C(=O)[C@H](CCc2ccc(Cl)cc2)NC(=O)CN(C)C(=O)[C@H](CC2CCCCC2)N(C)C(=O)[C@@H]2CCCN2C(=O)CN(C)C1=O [Compound 953] ([NMeL]I[Sar]P[NMeCha][Sar][hPhe(4-Cl)]P[Ac5c][NMeV][NMeD]-Piperidide; lactam N-11) the IC50 was 0.18 µM.
Molecule CC[C@H](C)[C@@H]1NC(=O)[C@H](C)N(C)C(=O)C[C@@H](C(=O)N2CCCCC2)N(C)C(=O)[C@H](C2CCCCC2)N(C)C(=O)C2(CCCC2)NC(=O)[C@@H]2CCCN2C(=O)[C@H](CCc2cccc(Cl)c2)NC(=O)CN(C)C(=O)[C@H](CC2CCCCC2)N(C)C(=O)CN(C)C(=O)CN(C)C1=O [Compound 954] ([NMeA]I[Sar][Sar][NMeCha][Sar][hPhe(3-Cl)]P[Ac5c][NMeChg][NMeD]-Piperidide; lactam N-11) has an IC50 of 0.0019 µM.
CC[C@H](C)[C@@H]1NC(=O)[C@H](CC(C)C)N(C)C(=O)C[C@@H](COCC(=O)NC(C)(C)C)NC(=O)[C@H](C(C)C)N(C)C(=O)C2(CCCC2)NC(=O)[C@@H]2CCCN2C(=O)[C@H](CCc2ccc(C(F)(F)F)c(Cl)c2)NC(=O)CN(C)C(=O)[C@H](CC2CCCCC2)N(C)C(=O)CN(C)C(=O)CN(C)C1=O [Compound 955] ([NMeL]I[Sar][Sar][NMeCha][Sar][hPhe(3-Cl-4-CF3)]P[Ac5c][NMeV]; linker N-C via X5) showed an IC50 of 0.026 µM.
CC[C@H](C)[C@@H]1NC(=O)[C@H](CC(C)C)N(C)C(=O)C[C@@H](C)N(C)C(=O)[C@H](C2CCCC2)N(C)C(=O)C2(CCC2)NC(=O)[C@@H]2CC(F)(F)CN2C(=O)[C@H](CCc2ccc(C(F)(F)F)c(Cl)c2)NC(=O)CN(C)C(=O)[C@H](CC2CCCCC2)N(C)C(=O)CN(C)C(=O)CN(C)C1=O [Compound 962] (cyclo([Ac4c][NMeGly(cPent)][NMedβ3hAla][NMeL]I[Sar][Sar][NMeCha][Sar][hPhe(3-Cl-4-CF3)][Pro(4,4-F2)])) was tested, and the IC50 was 0.0078 µM.
Work on CC[C@H](C)[C@@H]1NC(=O)[C@H](CC(C)C)N(C)C(=O)C[C@@H](C(=O)N2CCCCC2)N(C)C(=O)[C@H](CC(C)C)NC(=O)C(C)(C)N(C)C(=O)[C@H](CC(C)C)NC(=O)[C@H](CCc2ccc(C(F)(F)F)c(F)c2)NC(=O)CN(C)C(=O)[C@H](CC2CCCCC2)N(C)C(=O)CN(C)C(=O)CN(C)C1=O [Compound 969] ([NMeL]I[Sar][Sar][NMeCha][Sar][hPhe(3-F,4-CF3)]L[NMeAib]L[NMeD]-Piperidide; lactam N-11) yielded an IC50 of 0.002 µM.
In the case of CC[C@H](C)[C@@H]1NC(=O)[C@H](CC(C)C)N(C)C(=O)C[C@@H](C)NC(=O)[C@H](C(C)C)N(C)C(=O)C2(CCCC2)NC(=O)[C@@H]2CCCN2C(=O)[C@H](CCc2ccc(C(F)(F)F)c(Cl)c2)NC(=O)CN(C)C(=O)[C@H](CC2CCCCC2)N(C)C(=O)CN(C)C(=O)CN(CC(C)C)C1=O [Compound 970] (cyclo([Ac5c][NMeV][d(β3hA)][NMeL]I[Nleu][Sar][NMeCha][Sar][hPhe(3-Cl-4-CF3)]P)), the IC50 is reported as 0.25 µM.
Work on CCCOC[C@H]1C(=O)N(C)CC(=O)N[C@@H](CCc2ccc(C(F)(F)F)c(Cl)c2)C(=O)N2CCC[C@H]2C(=O)NC2(CCCC2)C(=O)N(C)[C@@H](C2CCCC2)C(=O)N(C)[C@H](C(=O)N2CCOCC2)CC(=O)N(C)[C@@H](CC(C)C)C(=O)N[C@@H]([C@@H](C)CC)C(=O)N(C)[C@@H](C)C(=O)N2CC[C@H]2C(=O)N1C [Compound 974] ([NMeL]I[NMeA][Aze][NMeS](Propyl)[Sar][hPhe(3-Cl-4-CF3)]P[Ac5c][NMeGly(cPent)][NMeD]-Morpholide; lactam N-11) yielded an IC50 of 0.00091 µM.
With CC[C@H](C)[C@@H]1NC(=O)[C@H](CC(C)C)N(C)C(=O)C[C@@H](C)NC(=O)[C@H](C(C)C)N(C)C(=O)C2(CCCC2)NC(=O)[C@@H]2CCCN2C(=O)[C@H](CCc2ccc(C(F)(F)F)c(Cl)c2)NC(=O)CN(C)C(=O)[C@H](Cc2cccc(C#N)c2)N(C)C(=O)CN(C)C(=O)CN(C)C1=O [Compound 975] (cyclo([Ac5c][NMeV][d(β3hA)][NMeL]I[Sar][Sar][NMePhe(3-CN)][Sar][hPhe(3-Cl-4-CF3)]P)) the IC50 was 0.022 µM.
CC[C@H](C)[C@@H]1NC(=O)[C@H](CC(C)C)N(C)C(=O)CCNC(=O)[C@H](C(C)C)N(C)C(=O)C2(CCCC2)NC(=O)[C@@H]2CCCN2C(=O)[C@H](CCc2ccc(C(F)(F)F)c(Cl)c2)NC(=O)CN(C)C(=O)[C@H](CC2CCCCC2)N(C)C(=O)CN(C)C(=O)CN(C)C1=O [Compound 979] (cyclo([Ac5c][NMeV][βAla][NMeL]I[Sar][Sar][NMeCha][Sar][hPhe(3-Cl-4-CF3)]P)) gave an IC50 of 0.037 µM.
With CC[C@H](C)[C@@H]1NC(=O)[C@H](CC(F)(F)F)N(C)C(=O)C[C@@H](C(=O)N2CCOCC2)N(C)C(=O)[C@H](C2CCCCC2)N(C)C(=O)C2(CCCC2)NC(=O)[C@@H]2CCCN2C(=O)[C@H](CCc2ccc(C(F)(F)F)c(Cl)c2)NC(=O)CN(C)C(=O)[C@H](Cc2ccc(C(F)(F)F)cc2)N(C)C(=O)CN(C)C(=O)CN(C)C1=O [Compound 981] ([NMeAbu(4,4,4-F3)]I[Sar][Sar][NMePhe(4-CF3)][Sar][hPhe(3-Cl-4-CF3)]P[Ac5c][NMeChg][NMeD]-Morpholide; lactam N-11) the IC50 was 0.00037 µM.
